Experimental data: US5422344A, “Method of treating retroviral infections in mammals” (The United States of America as represented by the …, priority 1990, dated 1995)
Entries after “also recorded” stand apart in the source; their conditions may differ.

Columns and labels:
HIV [1] = settings: cited from earlier work
HIV [2] = settings: chronically infected cell lines; cited from earlier work
[3] = tested on: HIV-IIIB (HIV-1) replication in H9 cells; experiment: HIV replication (RT activity) in acute infection of H9 cells; type: cell-based; settings: for effect on HIV replication: non-cytotoxic doses of topo II inhibitors added during HIV infection
Method: HIV-Acute Infection of H9 Cells by HIV and Drug Treatment: One ml of culture supernatant of H9/HIV-IIIB cells (10^6 /ml) was used after centrifugation (200xg, 20 min) and filtration (0.45 μm) for infecting 10^5 H9 cells in the presence or absence of different levels of CPT, m-AMSA or VP-16. Control cells received equivalent volumes of DMSO. The cells were incubated for 1 h at 37° C., pelleted, washed and resuspended in fresh media. […] (1981) J. Virol. 38: 239-48.
CPT Inhibition of HIV Replication Following Acute Infection of H9 Cells with HIV-IIIB. In order to determine appropriate concentrations of CPT which would permit cell viability and growth while inhibiting viral infection or replication, H9 cells were infected with HIV-IIIB as described above in the absence or presence of different CPT doses. The cells were incubated for 1 h at 37° C., pelleted, washed and resuspended in fresh media. Reverse transcriptase (RT) activity in the culture media was measured seven days after infection.
Since CPT is an anticancer drug and a known topo I inhibitor, its effects on HIV replication were compared to those of other anticancer drugs which are known to inhibit the related topoisomerase II enzyme.

H9 cells = experiment: Cell number, viability (trypan blue dye exclusion) and growth of H9 cells; type: cell-based
[4] = 0.5 μM VP16, day 6 post-infect.
[5] = 0.5 μM VP16, day 7 post-infect.
[6] = 0.5 μM VP16, day 8 post-infect.
[7] = 0.5 μM VP16, day 9 post-infect.
[8] = 1.5 μM VP16, day 6 post-infect.
[9] = 1.5 μM VP16, day 7 post-infect.
[10] = 1.5 μM VP16, day 8 post-infect.
[11] = 1.5 μM VP16, day 9 post-infect.
[12] = 0.4 μM m-Amsa, day 6 post-infect.
[13] = 0.4 μM m-Amsa, day 7 post-infect.
[14] = 0.4 μM m-Amsa, day 8 post-infect.
[15] = 0.4 μM m-Amsa, day 9 post-infect.
[16] = 1 μM m-Amsa, day 6 post-infect.
[17] = 1 μM m-Amsa, day 7 post-infect.
[18] = 1 μM m-Amsa, day 8 post-infect.
[19] = 1 μM m-Amsa, day 9 post-infect.

**Q.** Which “block of HIV infection at cell surface or at the level of reverse transcriptase” value (HIV [1]) does the source give for `Cc1cn(C2CC(N=[N+]=[N-])C(CO)O2)c(=O)[nH]c1=O` (stereo not shown) [AZT] here?
**A.** Its value is “known to block HIV infection”.

**Q.** For interferon α, which “suppression of HIV expression” value (HIV [2]) is on record?
**A.** The value was “reported to suppress HIV expression in chronically infected cell lines”.

**Q.** With `COc1cc(C2c3cc4c(cc3C(OC3OC5COC(C)OC5C(O)C3O)C3COC(=O)C23)OCO4)cc(OC)c1O` (stereo not shown) [VP-16] as the molecule, how does the RT/Cell [3, 4] read?
**A.** Its RT/Cell is 26283 cpm/10^5 cells.

**Q.** And the RT/Cell [3, 5]?
**A.** The RT/Cell was 26143 cpm/10^5 cells.

**Q.** And the RT/Cell [3, 6]?
**A.** Its RT/Cell is 29158 cpm/10^5 cells.

**Q.** What about the RT/Cell [3, 7] of the same molecule?
**A.** Its RT/Cell is 25183 cpm/10^5 cells.

**Q.** What about the RT/Cell [3, 8] of the same molecule?
**A.** The RT/Cell was 32242 cpm/10^5 cells.

**Q.** And the RT/Cell [3, 9]?
**A.** The RT/Cell was 33626 cpm/10^5 cells.

**Q.** What about the RT/Cell [3, 10] of the same molecule?
**A.** Its RT/Cell is 30675 cpm/10^5 cells.

**Q.** And the RT/Cell [3, 11]?
**A.** Its RT/Cell is 29194 cpm/10^5 cells.

**Q.** And the “effect on HIV replication” value [3]?
**A.** The value was “No effect on HIV replication was observed; also recorded: do not have any significant effect on HIV replication”.

**Q.** And the “No. Cells” value (H9 cells; [4])?
**A.** Its value is 1 × 10^6.

**Q.** And the “No. Cells” value (H9 cells; [5])?
**A.** Its value is 1.6 × 10^6.

**Q.** What about the “No. Cells” value (H9 cells; [6]) of the same molecule?
**A.** The value was 2.4 × 10^6.

**Q.** What about the “No. Cells” value (H9 cells; [7]) of the same molecule?
**A.** Its value is 3 × 10^6.

**Q.** What about the “No. Cells” value (H9 cells; [8]) of the same molecule?
**A.** The value was 1 × 10^6.

**Q.** What about the “No. Cells” value (H9 cells; [9]) of the same molecule?
**A.** The value was 2 × 10^6.

**Q.** And the “No. Cells” value (H9 cells; [10])?
**A.** The value was 2.4 × 10^6.

**Q.** What about the “No. Cells” value (H9 cells; [11]) of the same molecule?
**A.** Its value is 4 × 10^6.

**Q.** What does the source list for `COc1cc(NS(C)(=O)=O)ccc1Nc1c2ccccc2nc2ccccc12` [m-AMSA]?
**A.** RT/Cell [3, 12]: 36070 cpm/10^5 cells; RT/Cell [3, 13]: 25372 cpm/10^5 cells; RT/Cell [3, 14]: 38594 cpm/10^5 cells; RT/Cell [3, 15]: 37556 cpm/10^5 cells; RT/Cell [3, 16]: 32674 cpm/10^5 cells; RT/Cell [3, 17]: 40057 cpm/10^5 cells; RT/Cell [3, 18]: 45558 cpm/10^5 cells; RT/Cell [3, 19]: 36442 cpm/10^5 cells; effect on HIV replication [3]: do not have any significant effect on HIV replication; effect on HIV replication ([3]; listed as m-Amsa): No effect on HIV replication was observed; No. Cells (H9 cells; [12]): 4 × 10^5; No. Cells (H9 cells; [13]): 9 × 10^5; No. Cells (H9 cells; [14]): 1.3 × 10^6; No. Cells (H9 cells; [15]): 2 × 10^6; No. Cells (H9 cells; [16]): 4 × 10^5; No. Cells (H9 cells; [17]): 7.5 × 10^5; No. Cells (H9 cells; [18]): 1.1 × 10^6; No. Cells (H9 cells; [19]): 2 × 10^6
